One compound from publication PMC9225722, “Synthesis and biological evaluation of thieno[3,2-c]pyrazol-3-amine derivatives as potent glycogen synthase kinase 3β inhibitors for Alzheimer’s disease” (Journal of Enzyme Inhibition and Medicinal Chemistry, 2022) can be followed below.

What all share (type): cell-based, human
In test [1] the test system is phosphorylation of GSK-3β at Ser9. The experiment in a line: Western blot of p-GSK-3β (Ser9) in SH-SY5Y cells. The following applies: 2.5 h, control 0.33. An excerpt: GSK-3β is activated by phosphorylation at Tyr216 and is inhibited by phosphorylation at Ser9 [48]. As one of the substrates of Akt (protein kinase B), GSK-3 can inhibit Akt[49]. The inhibition of GSK-3β increases the p-Akt expression and activates the PI3K/Akt pathway, and that, in turn, phosphorylates the GSK-3β at the Ser9 site[50]^,[51]. […] As shown in Figure 6(A), LiCl greatly promoted GSK-3β phosphorylation at Ser9 (p-GSK-3β/GAPDH: 0.60 vs 0.33). […] Therefore, in cellular level, compound 16b was confirmed to have a direct effect on GSK-3β.
Figure 6. (A) The effect of 16b on phosphorylation of GSK-3β at Ser9; (B) the effect of 16b on β-catenin abundance. Protein expressions were detected by immunoblot analysis with a specific antibody. Values are reported as the mean ± SD of three independent experiments. *p < 0.05, **p < 0.01, ***p < 0.001 vs control.
SH-SY5Y cells (1 × 10^6) were seeded in 12-well plates (Corning, Los Altos, MA, USA) and incubated with compound 16b or LiCl at the indicated concentrations for 2.5 h at 37 °C in 5% CO2. At the end of incubation, cells were lysed by addition of ice-cold RIPA buffer containing a protease inhibitor cocktail. The protein quantification was determined using a BCA protein assay kit (Jiangsu KeyGEN BioTECH Co., Ltd., Nanjing, China). Cellular lysates were mixed with an equal volume of SDS (sodium dodecyl sulfate) loading buffer (Jiangsu KeyGEN BioTECH Co., Ltd., Nanjing, China) and separated by electrophoresis (Bio-rad Power Supplies Basic, Shanghai, China) in polyacrylamide gel. Proteins were transferred from acrylamide gels to nitrocellulose membranes and blocked in a blocking buffer (PBS, 5% non-fat milk) for 1.5 to 2 h at 20 °C. […] The blots were washed by TBST for 20 min and detected with ECL chemiluminescent reagent (Jiangsu KeyGEN BioTECH Co., Ltd., Nanjing, China) for 3 min. Pixel intensity was quantitated using gel imaging system (SYNGENE G:BOX/iChemi XR5, ISS, San Diego, CA, US) and Gel-Pro32 software (Media Cybernetics, Bethesda, MD, USA). […]
(Immunoblotting shows a protein as a band on a membrane.)

Test [2] has as its system tau phosphorylation at Ser396. The experiment in a line: Inhibition of Aβ-induced tau hyperphosphorylation (Western blot) in SH-SY5Y cells. The following applies: 20 μM Aβ25-35 stimulated (Aβ25-35 alone 0.83). On the procedure: GSK-3β phosphorylates tau at sites (Ser199, Ser396, and Ser443), and the hyperphosphorylated tau aggregate into NFTs in AD[63]. Inhibition of GSK-3β could reduce tau hyperphosphorylation. Therefore, the cell-based assay examining Aβ-induced tau phosphorylation at Ser396 represents a direct functional assay to measure the cellular activity of GSK-3β inhibitors. To investigate the effect of 16b on tau phosphorylation, Western blot analysis was carried out to check Aβ-induced tau protein hyperphosphorylation at Ser396 in SH-SY5Y cells, using LiCl as the control. […] At the concentration of 5 μM, 10 μM and 20 μM, 16b decreased the phosphorylation tau level to 0.70, 0.52, 0.40, respectively.
Figure 7. Inhibition of Aβ-induced tau phosphorylation by 16b in SH-SY5Y cells. Values are reported as the mean ± SD of three independent experiments. *p < 0.05, **p < 0.01, ***p < 0.001 vs control.
SH-SY5Y cells were seeded in 12-well plates until 80% confluence, serum-deprived for 12 h. Cells were pre-incubated with compound 16b or LiCl for 1 h, thereafter stimulated with Aβ25–35 (Sigma) for another 6 h. According to the previously reported method[64]^,[75], the phosphorylated tau was determined.

The test system of another test is SH-SY5Y cells. The experiment in a line: Neuronal neurite outgrowth assay. The following applies: 10 μM, 72 h, compared with RA (10 μM). The source says: Differentiated SH-SY5Y cells express neurogenesis-related markers, including growth-associated protein 43 (GAP43), the N-myc gene as well as neuronal polarity marker microtubule-associated protein 2 (MAP-2). GAP43 is an intrinsic determinant of neuronal development and plasticity which regulates axon growth and regeneration[68]^,[69]. N-myc is indispensable to normal neurogenesis in the expansion of progenitor cell populations. MAP-2 regulates neuronal development, structural stability and synaptic plasticity through the formation of axonal and dendritic processes[71]^,[72]. Inhibition of GSK-3β could induce neurogenesis and promote the expressions of the neurogenesis-related markers. Firstly, we used SH-SY5Y cells to study the effect of 16b on neurite outgrowth, using retinoic acid (RA) as a positive control. After incubating with 16b (10 μM) or RA (10 μM) for 72 h, the morphology of differentiated neuronal neurite outgrowth were obtained.
Figure 8. (A) Effect of 16b (10 μM) on neurite outgrowth (72 h). Red arrows indicated cells bearing neurites. […]
SH-SY5Y cells (5 × 10^3) were planted in 96-well plates and cultivated at 37 °C for 24 h. […] After the SH-SY5Y cells were cultivated for 24 h, total RNA was extracted, and quantitative RT-PCR was performed according to the previously reported method.

For the compound `CC(C)C(=O)Nc1n[nH]c2cc(-c3cccnc3)sc12` [Compound 16b, N-(5-(pyridin-3-yl)-1H-thieno[3,2-c]pyrazol-3-yl)isobutyramide], the “p-GSK-3β/GAPDH ratio (Ser9)” value in test [1] (10 μM) is reported as 0.41; in test [1] (20 μM) it was 0.50. For the same compound, the “p-tau/GAPDH ratio (Ser396)” value was 0.70 in test [2] (5 μM), 0.52 in test [2] (10 μM) and 0.40 in test [2] (20 μM). Moreover, the “neurite outgrowth of SH-SY5Y cells” value in the test on SH-SY5Y cells was “substantial ability in inducing SH-SY5Y cells neurite outgrowth”.
